{
  "source": "paper PMC11378297",
  "about": "“Discovery and Profiling of New Multimodal Phenylglycinamide Derivatives as Potent Antiseizure and Antinociceptive Drug Candidates” (ACS Chemical Neuroscience, 2024)",
  "test": "pharmacokinetic study in mice (serum and brain, non-compartmental analysis)",
  "type": "in vivo, mouse",
  "settings": "for Kp / MRT / Tmax / half-life / k el / CL/F / Vd/F: male, CD-1, mouse; for Kp: brain and serum, read-out: Brain-to-serum AUC ratio; for half-life: read-out: t1/2 λz; for k el: read-out: λz (converted); for Vd/F: read-out: Vz/F",
  "experimental": "They were housed in conditions of constant temperature with the 12:12 h light–dark cycle and free access to food and water. […] Moreover, the compound was dissolved in a mixture of DMSO/PEG400/water (1:4:5, v/v/v) and administered p.o. at a dose of 25 mg/kg. […] After allowing the blood to coagulate for 20 min at room temperature, the serum was separated using a 5000g Eppendorf miniSpin centrifuge (Germany) for 10 min. Samples were kept at −80 °C until they were analyzed. The First Ethical Committee on Animal Experimentation in Kraków granted approval for all animal treatments (license no. 270/2019). Concentrations of compound (R)-32 in mouse serum and brain tissue were measured using a liquid chromatography tandem mass spectrometry method (LC-MS/MS). Mouse brains were homogenized in distilled water at the ratio of 1:4 (w/v) using the ULTRA-TURRAX T10 basic tissue homogenizer (IKA, Germany). […] Samples were shaken for 10 min (IKA Vibrax VXR, Germany) and then centrifuged for 5 min at the speed of 8000g (Eppendorf miniSpin centrifuge, Germany). Supernatants were transferred into the autosampler vials, and a sample volume of 1 μL was injected into the LC-MS/MS system. Liquid chromatography was performed on an Exion LC AC HPLC system (Sciex, USA) with a Hypersil Gold C18 analytical column (3 × 50 mm, 5 μm, Thermo Scientific, USA). […] The initial mobile phase composition was 95% B and 5% A for the first 2 min with a linear gradient to 5% B in the next 2 min and then isocratic mode for 2 min with the following rapid change back to 95% B in 0.1 min. The remaining time of elution was set at 95% B. The whole HPLC operation lasted 10 min, and the flow rate was set to 0.4 mL/min. A QTRAP 4500 mass spectrometer (Sciex, USA) equipped with an ESI source, was used for detection. The mass spectrometric parameters were optimized to obtain maximum sensitivity at unit resolution. The ion source temperature was maintained at 450 °C, and the ion spray voltage was set to 5500 V. The CUR was set to 40 psi and the collision gas (CAD) to medium. The MRM experiments were conducted in the positive ion mode by monitoring the precursor to product ion transitions from m/z 422 to 247 (CE = 25 eV) and from m/z 422 to 106 (CE = 57 eV) for compound (R)-32 and from m/z 436 to 207 (CE = 42 eV) for IS. The working solutions for (R)-32 were created in methanol, while the stock solution was made in DMSO at a concentration of 1 mg/mL. […] Two distinct calibration curves were created for serum samples, one for greater concentrations and one for lower amounts. The precipitating agent was also diluted 10 times with calibrators and samples from the highest concentration range. […] The limits used for quantification were 0.001 to 5, 0.1 to 20 μg/mL for serum, and 0.005 to 25 μg/g for brain tissue. Samples with (R)-32 concentrations higher than the quantitative upper limit were 10-fold diluted using the blank matrix, which is either serum or brain homogenate. The method’s precision and accuracy fell within the bounds established by the FDA’s standards for the verification of bioanalytical techniques. During the normal analysis of the samples, no substantial matrix effect was identified, and no stability issues were encountered. The Analyst program version 1.7 was utilized for both data collecting and analysis. Noncompartmental analysis was used to estimate pharmacokinetic parameters of (R)-32 in serum and brain tissue. The area under the mean concentration versus time curve extrapolated to infinity (AUC0-inf) was estimated using the linear trapezoidal rule by combining trapezoid calculation of AUC0–t and the area extrapolated to infinity. The MRT was calculated from AUMC0-inf/AUC0-inf, where AUMC0-inf was estimated by calculation of the total area under the first-moment curve. The terminal slope (λz) was calculated by log–linear regression of the drug concentration versus time data in the terminal phase and the terminal half-life (t0.5) was calculated as 0.693/λz. […]",
  "note": "Like-named read-outs stand apart in the source and are kept apart here.",
  "data": [
    {"smiles": "CC(=O)N[C@@H](C(=O)N1CCN(c2cccc(OC(F)(F)F)c2)CC1)c1ccccc1", "note": "[(R)-32, (R)-N-(2-Oxo-1-phenyl-2-(4-(3-(trifluoromethoxy)phenyl)piperazin-1-yl)ethyl)acetamide]", "values": [
      {"measurement": "MRT after p.o. dosing in comparison to i.p. administration", "value": "~4", "unit": "fold"},
      {"measurement": "ratios of Cmax and AUC in serum after p.o. dosing compared to i.p. administration of the same dose", "setting": "25 mg/kg", "value": "lower than 0.5"},
      {"measurement": "AUC0–∞", "setting": "brain, 25 mg/kg i.p.", "value": "274,802.60 ng·min/mL(g)"},
      {"measurement": "Cmax", "setting": "brain, 25 mg/kg i.p.", "value": "8266.67 ng/mL(g)"},
      {"measurement": "AUC0–∞", "setting": "brain, 25 mg/kg p.o.", "value": "156,252.29 ng·min/mL(g)"},
      {"measurement": "Cmax", "setting": "brain, 25 mg/kg p.o.", "value": "1870.33 ng/mL(g)"},
      {"measurement": "AUC0–∞", "setting": "brain, 50 mg/kg i.p.", "value": "689,733.29 ng·min/mL(g)"},
      {"measurement": "Cmax", "setting": "brain, 50 mg/kg i.p.", "value": "21,475.00 ng/mL(g)"},
      {"measurement": "Kp", "setting": "intraperitoneal, 50 mg/kg", "value": 1.5},
      {"measurement": "Kp", "setting": "ip, 25 mg/kg i.p.", "value": 1.2},
      {"measurement": "Kp", "setting": "po, 25 mg/kg p.o.", "value": 1.3},
      {"measurement": "MRT", "setting": "ip, brain, 25 mg/kg i.p.", "value": 45.5, "unit": "min"},
      {"measurement": "Tmax", "setting": "ip, brain, 25 mg/kg i.p.", "value": 15, "unit": "min"},
      {"measurement": "half-life", "setting": "ip, brain, 25 mg/kg i.p.", "value": 80.5, "unit": "min"},
      {"measurement": "k el", "setting": "ip, brain, 25 mg/kg i.p.", "value": 0.00015, "unit": "s⁻¹"},
      {"measurement": "MRT", "setting": "ip, brain, 50 mg/kg i.p.", "value": 47.3, "unit": "min"},
      {"measurement": "Tmax", "setting": "ip, brain, 50 mg/kg i.p.", "value": 15, "unit": "min"},
      {"measurement": "half-life", "setting": "ip, brain, 50 mg/kg i.p.", "value": 62.3, "unit": "min"},
      {"measurement": "k el", "setting": "ip, brain, 50 mg/kg i.p.", "value": 0.000183, "unit": "s⁻¹"},
      {"measurement": "CL/F", "setting": "ip, serum, 25 mg/kg i.p.", "value": 110, "unit": "mL/min/kg"},
      {"measurement": "MRT", "setting": "ip, serum, 25 mg/kg i.p.", "value": 42.3, "unit": "min"},
      {"measurement": "Tmax", "setting": "ip, serum, 25 mg/kg i.p.", "value": 15, "unit": "min"},
      {"measurement": "Vd/F", "setting": "ip, serum, 25 mg/kg i.p.", "value": 12.3, "unit": "L/kg"},
      {"measurement": "half-life", "setting": "ip, serum, 25 mg/kg i.p.", "value": 77.5, "unit": "min"},
      {"measurement": "k el", "setting": "ip, serum, 25 mg/kg i.p.", "value": 0.00015, "unit": "s⁻¹"},
      {"measurement": "CL/F", "setting": "ip, serum, 50 mg/kg i.p.", "value": 108, "unit": "mL/min/kg"},
      {"measurement": "MRT", "setting": "ip, serum, 50 mg/kg i.p.", "value": 33.6, "unit": "min"},
      {"measurement": "Tmax", "setting": "ip, serum, 50 mg/kg i.p.", "value": 15, "unit": "min"},
      {"measurement": "Vd/F", "setting": "ip, serum, 50 mg/kg i.p.", "value": 9.97, "unit": "L/kg"},
      {"measurement": "half-life", "setting": "ip, serum, 50 mg/kg i.p.", "value": 64.3, "unit": "min"},
      {"measurement": "k el", "setting": "ip, serum, 50 mg/kg i.p.", "value": 0.000183, "unit": "s⁻¹"},
      {"measurement": "MRT", "setting": "po, brain, 25 mg/kg p.o.", "value": 151, "unit": "min"},
      {"measurement": "Tmax", "setting": "po, brain, 25 mg/kg p.o.", "value": 5, "unit": "min"},
      {"measurement": "half-life", "setting": "po, brain, 25 mg/kg p.o.", "value": 133, "unit": "min"},
      {"measurement": "k el", "setting": "po, brain, 25 mg/kg p.o.", "value": "8.33e-05", "unit": "s⁻¹"},
      {"measurement": "CL/F", "setting": "po, serum, 25 mg/kg p.o.", "value": 210, "unit": "mL/min/kg"},
      {"measurement": "MRT", "setting": "po, serum, 25 mg/kg p.o.", "value": 156, "unit": "min"},
      {"measurement": "Tmax", "setting": "po, serum, 25 mg/kg p.o.", "value": 5, "unit": "min"},
      {"measurement": "Vd/F", "setting": "po, serum, 25 mg/kg p.o.", "value": 38.5, "unit": "L/kg"},
      {"measurement": "half-life", "setting": "po, serum, 25 mg/kg p.o.", "value": 127, "unit": "min"},
      {"measurement": "k el", "setting": "po, serum, 25 mg/kg p.o.", "value": "8.33e-05", "unit": "s⁻¹"},
      {"measurement": "Tmax", "setting": "serum, other: both i.p. and p.o., after both i.p. and p.o. dosing", "value": "≤ 15", "unit": "min"},
      {"measurement": "AUC0–∞", "setting": "serum, 25 mg/kg i.p.", "value": "228,063.48 ng·min/mL(g)"},
      {"measurement": "Cmax", "setting": "serum, 25 mg/kg i.p.", "value": "7613.33 ng/mL(g)"},
      {"measurement": "AUC0–∞", "setting": "serum, 25 mg/kg p.o.", "value": "118,998.11 ng·min/mL(g)"},
      {"measurement": "Cmax", "setting": "serum, 25 mg/kg p.o.", "value": "1266.00 ng/mL(g)"},
      {"measurement": "AUC0–∞", "setting": "serum, 50 mg/kg i.p.", "value": "464,877.54 ng·min/mL(g)"},
      {"measurement": "Cmax", "setting": "serum, 50 mg/kg i.p.", "value": "15,900.00 ng/mL(g)"}
    ]}
  ]
}
